Measurements as given in patent publication US20260241013A1, “TARGETED PROTEIN DEGRADATION USING PRODRUGS OF BIFUNCTIONAL COMPOUNDS THAT BIND UBIQUITIN LIGASE AND A TARGET MCL-1 PROTEIN” (Captor Therapeutics S.A., priority 2022, published 2026).
Like-named read-outs stand apart in the source and are kept apart here.

Assays:
Format in all cases: cell-based
MV4-11 cells = test: Cell viability assay (CellTiter-Glo, CTG protocol), MV4-11; conditions: Homo sapiens, MV4-11 (MCL-1 dependent AML line), 24 hours incubation, 1% FBS, read-out: Average pCC50 by molecule MV4-11 (converted)
From the text: (§1) The effect of various compounds of the invention on the viability of MV4-11 and ARH-77 cell lines was investigated, using the CTG protocol described below.
(§2) MV4-11 cell lines are derived from acute myeloid leukaemia and it is described in the literature as a MCL-1 dependent cell line, as opposed to lymphoblast-like ARH-77 cell line, which is described as independent of MCL-1 (Tron A E et al. Nat Commun. 2018; 9: 5341; Caenepeel S et al. Cancer Discov. 2018 December; 8(12): 1582-1597).
(§3) Cells (MV4-11 or ARH-77) were seeded on […] in a growth medium with 1% FBS. Next, compound stocks were pre-diluted in DMSO and added directly to the cell culture media (final DMSO concentration: 0.5%). Compound concentrations used in this assay: 1/3 dilutions starting at 30 μM (9 to 12 points). After 24 hours of incubation, cell viability was evaluated using CellTiter-Gob® Luminescent Cell Viability Assay (Promega, cat #G7572). The luminescence signal was measured using a CLARIOstar Plus Multi-Mode Microplate Reader (574-590 nm).
(§4) Results were normalized to DMSO control. Collected data were analyzed using GraphPad Prism to calculate pCC50 values (i.e. the negative log of the CC50 value). CC50 (50% cytotoxic concentration) is the effective concentration of a cytotoxic compound, which produces 50% of the maximum possible cell death (i.e. the concentration of the compound which is required in order to reduce cell viability by 50%). CC50 is often used rather than IC50 in cell toxicity assays.

[1] = Cell viability assay (CellTiter-Glo, CTG protocol), ARH-77; conditions: human, ARH-77 cells (lymphoblast-like), ARH-77 (MCL-1 independent line), 24 hours incubation, 1% FBS, read-out: Average pCC50 by molecule ARH-77 (converted)
From the text: as §1, §2, §3, §4

CRBN = biological target: T1, CRBN (Homo sapiens, UniProt Q96SW2); test: NanoBRET In-cell CRBN Target Engagement Assay (live and lytic mode), NanoLuc CRBN HEK293 cells
T1 construct: host or cells: HEK293 (NanoLuc CRBN HEK293 cells)
Method: Commercially available, NanoBRET In-cell CRBN Target Engagement Assay (NanoBRET CRBN TE Assay), which uses NanoLuc CRBN HEK293 cells and NanoBRET In-cell CRBN Tracer was used (N2910, N2912, PROMEGA) to determine the cell membrane permeability of prodrugs of MCL-1 degraders.
The assay was run in 96-well plate format (cat. 3600, Corning). NanoLuc CRBN HEK293 cells were treated with CRBN Tracer and compounds. Briefly, prepared was cell suspension (0.17×10^6cells/ml) in Opti-MEM without phenol red (Life Technologies). The cells were treated with CRBN Tracer (20× concentrated, 5 μl/well. For the live mode: 0.8 μM and for the lytic: 0.17 μM final concentration) or DMSO vehicle control (20× concentrated, 5 μl/well). Such prepared cells were seeded into the wells of 96-well plate on top of compounds (100× concentrated, 1 μl/well; 11-point 2-fold dilution) pre-plated on them with the help of Echo 555 acoustic dispenser (Labcyte). For the lytic mode assay, Digitonin (0.05 mg/ml, 10× concentrated, 10 μl/well) was added additionally. In the live mode assay, the plate was incubated at 37° C., 5% CO2 for 2 hours, and then at room temperature for 15 minutes to cool down. In the lytic mode assay, there was no incubation. The 3×Complete NanoBRET reagent (50 μl/well) was prepared according to the manufacturer's recommendations, appropriately for live and lytic mode. The plate was incubated for 2 minutes at room temperature and the luminescence and fluorescence readings followed using CLARIOstar Multimode Plate Reader (donor emission RLU—450 nm; acceptor emission RFU—610 nm). RBA value is an indicator of cell membrane permeability (the lower, the better) is calculated from absolute pIC50 (the negative log of the absolute IC50 value when converted to molar) of the live mode assay (pIC50 Live) and the lytic mode assay (pIC50 Lytic).

[2] = live mode, intact cells, 2 hours at 37° C., read-out: pIC50 (live) (converted)
[3] = lytic mode, digitonin-lysed cells, no incubation, read-out: pIC50 (lytic) (converted)

T1 sequence (Q96SW2 whole entry): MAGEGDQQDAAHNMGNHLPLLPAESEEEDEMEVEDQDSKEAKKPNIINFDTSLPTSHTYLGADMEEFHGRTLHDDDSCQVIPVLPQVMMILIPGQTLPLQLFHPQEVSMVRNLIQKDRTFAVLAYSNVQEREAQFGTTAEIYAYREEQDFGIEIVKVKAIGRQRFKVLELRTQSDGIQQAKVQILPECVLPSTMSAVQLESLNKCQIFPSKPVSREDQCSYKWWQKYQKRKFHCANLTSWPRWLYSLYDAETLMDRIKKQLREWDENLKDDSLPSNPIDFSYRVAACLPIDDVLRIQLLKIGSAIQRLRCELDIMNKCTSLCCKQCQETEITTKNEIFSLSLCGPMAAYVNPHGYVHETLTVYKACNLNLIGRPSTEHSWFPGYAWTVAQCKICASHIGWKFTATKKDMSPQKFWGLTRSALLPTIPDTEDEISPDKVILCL

IC50 (CRBN; [2]) [nM] | IC50 (CRBN; [3]) [nM] | SMILES | CC50 (MV4-11 cells) [nM] | CC50 at 24 h [1] [nM]
39.8 | 79.4 | Cc1nn(C)c(C)c1-c1c(Cl)ccc2c(CCCOc3cccc4cc(F)ccc34)c(C(=O)OCOC(=O)CCO)n(CCN3CCN(C(=O)COc4cccc5c4CN(C4CCC(=O)NC4=O)C5=O)CC3)c12 (stereo not drawn) [Compound 43] | < 3.16 | > 3160
– | – | Cc1nn(C)c(C)c1-c1c(Cl)ccc2c(CCCOc3cccc4cc(F)ccc34)c(C(=O)OCOC(=O)C3CCNCC3)n(CCN3CCN(C(=O)COc4cccc5c4CN(C4CCC(=O)NC4=O)C5=O)CC3)c12 (stereo not drawn) [Compound 55, ((Piperidine-4-carbonyl)oxy)methyl 6-chloro-1-(2-(4-(2-((2-(2,6-dioxopiperidin-3-yl)-1-oxoisoindolin-4-yl)oxy)acetyl)piperazin-1-yl)ethyl)-3-(3-((6-fluoronaphthalen-1-yl)oxy)propyl)-7-(1,3,5-trimethyl-1H-pyrazol-4-yl)-1H-indole-2-carboxylate] | < 100 | > 10000
– | – | COCCOCC(=O)OCOC(=O)c1c(CCCOc2cccc3cc(F)ccc23)c2ccc(Cl)c(-c3c(C)nn(C)c3C)c2n1CCN1CCN(C(=O)COc2cccc3c2CN(C2CCC(=O)NC2=O)C3=O)CC1 (stereo not drawn) [Compound 57, (2-(2-Methoxyethoxy)acetoxy)methyl 6-chloro-1-(2-(4-(2-((2-(2,6-dioxopiperidin-3-yl)-1-oxoisoindolin-4-yl)oxy)acetyl)piperazin-1-yl)ethyl)-3-(3-((6-fluoronaphthalen-1-yl)oxy)propyl)-7-(1,3,5-trimethyl-1H-pyrazol-4-yl)-1H-indole-2-carboxylate] | < 10 | > 10000
25.1 | 7940 | Cc1nn(C)c(C)c1-c1c(Cl)ccc2c(CCCOc3cccc4cc(F)ccc34)c(C(=O)OCOC(=O)C(C)(C)C)n(CCN3CCN(C(=O)Cn4c(C)nc5c(C(=O)NC6CCC(=O)NC6=O)cccc54)CC3)c12 (stereo not drawn) [Compound 70, (6-Chloro-1-{2-[4-(2-{4-[(2,6-dioxopiperidin-3-yl)carbamoyl]-2-methyl-1H-1,3-benzodiazol-1-yl}acetyl)piperazin-1-yl]ethyl}-3-{3-[(6-fluoronaphthalen-1-yl)oxy]propyl}-7-(1,3,5-trimethyl-1H-pyrazol-4-yl)-1H-indole-2-carbonyloxy)methyl 2,2-dimethylpropanoate] | < 10 | > 31600
– | – | Cc1nn(C)c(C)c1-c1c(Cl)ccc2c(CCCOc3cccc4cc(F)ccc34)c(C(=O)OCOC(=O)C(C)(C)C)n(CCN3CCC(CN4CCN(c5ccc6c(c5)CN([C@H]5CCC(=O)NC5=O)C6=O)CC4)CC3)c12 [Compound 71, (Pivaloyloxy)methyl (S)-6-chloro-1-(2-(4-((4-(2-(2,6-dioxopiperidin-3-yl)-1-oxoisoindolin-5-yl)piperazin-1-yl)methyl)piperidin-1-yl)ethyl)-3-(3-((6-fluoronaphthalen-1-yl)oxy)propyl)-7-(1,3,5-trimethyl-1H-pyrazol-4-yl)-1H-indole-2-carboxylate] | < 100 | > 10000
6.31 | 398 | Cc1nn(C)c(C)c1-c1c(Cl)ccc2c(CCCOc3cccc4cc(F)ccc34)c(C(=O)OCOC(=O)C(C)(C)C)n(CCN3CCN(C(=O)COc4cccc5c4n(C)c(=O)n5C4CCC(=O)NC4=O)CC3)c12 (stereo not drawn) [Compound 73, (Pivaloyloxy)methyl 6-chloro-1-(2-(4-(2-((1-(2,6-dioxopiperidin-3-yl)-3-methyl-2-oxo-2,3-dihydro-1H-benzo[d]imidazol-4-yl)oxy)acetyl)piperazin-1-yl)ethyl)-3-(3-((6-fluoronaphthalen-1-yl)oxy)propyl)-7-(1,3,5-trimethyl-1H-pyrazol-4-yl)-1H-indole-2-carboxylate] | < 3.16 | > 1000
– | – | CC(=O)OC(C)OC(=O)c1c(CCCOc2cccc3cc(F)ccc23)c2ccc(Cl)c(-c3c(C)nn(C)c3C)c2n1CCN1CCN(C(=O)COc2cccc3c2CN(C2CCC(=O)NC2=O)C3=O)CC1 (stereo not drawn) [Compound 75, 1-Acetoxyethyl 6-chloro-1-(2-(4-(2-((2-(2,6-dioxopiperidin-3-yl)-1-oxoisoindolin-4-yl)oxy)acetyl)piperazin-1-yl)ethyl)-3-(3-((6-fluoronaphthalen-1-yl)oxy)propyl)-7-(1,3,5-trimethyl-1H-pyrazol-4-yl)-1H-indole-2-carboxylate] | < 10 | > 31600
– | – | Cc1nn(C)c(C)c1-c1c(Cl)ccc2c(CCCOc3cccc4cc(F)ccc34)c(C(=O)OC(C)OC(=O)OC(C)C)n(CCN3CCN(C(=O)COc4cccc5c4CN(C4CCC(=O)NC4=O)C5=O)CC3)c12 (stereo not drawn) [Compound 99, 1-{[(Propan-2-yloxy)carbonyl]oxy}ethyl 6-chloro-1-{2-[4-(2-{[2-(2,6-dioxopiperidin-3-yl)-1-oxo-2,3-dihydro-1H-isoindol-4-yl]oxy}acetyl)piperazin-1-yl]ethyl}-3-{3-[(6-fluoronaphthalen-1-yl)oxy]propyl}-7-(1,3,5-trimethyl-1H-pyrazol-4-yl)-1H-indole-2-carboxylate] | < 31.6 | > 31600
– | – | Cc1nn(C)c(C)c1-c1c(Cl)ccc2c(CCCOc3cccc4cc(F)ccc34)c(C(=O)OC(C)OC(=O)OC3CCCCC3)n(CCN3CCN(C(=O)COc4cccc5c4CN(C4CCC(=O)NC4=O)C5=O)CC3)c12 (stereo not drawn) [Compound 100, 1-(((Cyclohexyloxy)carbonyl)oxy)ethyl 6-chloro-1-(2-(4-(2-((2-(2,6-dioxopiperidin-3-yl)-1-oxoisoindolin-4-yl)oxy)acetyl)piperazin-1-yl)ethyl)-3-(3-((6-fluoronaphthalen-1-yl)oxy)propyl)-7-(1,3,5-trimethyl-1H-pyrazol-4-yl)-1H-indole-2-carboxylate] | < 31.6 | > 31600
– | – | Cc1nn(C)c(C)c1-c1c(Cl)ccc2c(CCCOc3cccc4cc(F)ccc34)c(C(=O)OCCS(C)(=O)=O)n(CCN3CCN(C(=O)COc4cccc5c4CN(C4CCC(=O)NC4=O)C5=O)CC3)c12 (stereo not drawn) [Compound 124, 2-(Methylsulfonyl)ethyl 6-chloro-1-(2-(4-(2-((2-(2,6-dioxopiperidin-3-yl)-1-oxoisoindolin-4-yl)oxy)acetyl)piperazin-1-yl)ethyl)-3-(3-((6-fluoronaphthalen-1-yl)oxy)propyl)-7-(1,3,5-trimethyl-1H-pyrazol-4-yl)-1H-indole-2-carboxylate] | < 1000 | > 31600
316 | 355 | Cc1nn(C)c(C)c1-c1c(Cl)ccc2c(CCCOc3cccc4cc(F)ccc34)c(C(=O)OCCN3CCOCC3)n(CCN3CCN(C(=O)COc4cccc5c4CN(C4CCC(=O)NC4=O)C5=O)CC3)c12 (stereo not drawn) [Compound 129, 2-Morpholinoethyl 6-chloro-1-(2-(4-(2-((2-(2,6-dioxopiperidin-3-yl)-1-oxoisoindolin-4-yl)oxy)acetyl)piperazin-1-yl)ethyl)-3-(3-((6-fluoronaphthalen-1-yl)oxy)propyl)-7-(1,3,5-trimethyl-1H-pyrazol-4-yl)-1H-indole-2-carboxylate] | – | –
398 | 251 | Cc1nn(C)c(C)c1-c1c(Cl)ccc2c(CCCOc3cccc4cc(F)ccc34)c(C(=O)OCCN3CCN(C)CC3)n(CCN3CCN(C(=O)COc4cccc5c4CN(C4CCC(=O)NC4=O)C5=O)CC3)c12 (stereo not drawn) [Compound 133, 2-(4-Methylpiperazin-1-yl)ethyl 6-chloro-1-(2-(4-(2-((2-(2,6-dioxopiperidin-3-yl)-1-oxoisoindolin-4-yl)oxy)acetyl)piperazin-1-yl)ethyl)-3-(3-((6-fluoronaphthalen-1-yl)oxy)propyl)-7-(1,3,5-trimethyl-1H-pyrazol-4-yl)-1H-indole-2-carboxylate] | – | –
